In patent US8003615B2, “Stable vitamin B6 derivative” (Daiichi Fine Chemical Co., Ltd., priority 2003, dated 2011):

What was measured:
Format in all cases: physicochemical
[1] = Light stability in a drinking water
Method: Glucose (4.6 g), Aspartame (0.01 g), citric acid (0.1 g), sodium chloride (0.02 g), potassium chloride (0.02 g), magnesium chloride (0.01 g), calcium lactate (0.04 g), vitamin B6 derivative (0.01 g), sodium L-aspartate (0.07 g), sodium L-glutamate (0.02 g), L-arginine (0.02 g), and aromatic (0.1 g) were dissolved in purified water (70 ml), and then made into a volume of 100 ml with purified water to prepare a drinking water. In this preparation, precipitates and the like were not observed. The prepared drinking water in a volume of 6 ml was filled in a glass bottle, and exposed to light of a D65 fluorescent lamp at a total illumination of 0, 60,000, 180,000, or 300,000 lux·hr, and then the vitamin B6 derivative was quantified by the HPLC method in the same manner as in Test Example 1.

[2] = Light stability in a lotion
Method: Ceramide formulation (0.1 g), 1,3-butylene glycol (2.5 g), dipropylene glycol (2.5 g), and methylparaben (0.01 g) were warmed at 80° C. and stirred until the mixture became transparent. The mixture was cooled to 35° C., then added with 0.1 g of a vitamin B6 derivative (pyridoxine 3-β-D-glucoside, pyridoxine 3-β-D-glucoside hydrochloride, or pyridoxine 3,4-cyclic sodium phosphate: in Test Examples 11 to 16 mentioned below, the “vitamin B6 derivative” means one of these three kinds of substances) or 0.1 g of pyridoxine 3-sodium sulfate, 1.0 g of sorbitol-fermented polysaccharide and 90 ml of purified water with stirring, and the mixture were stirred until the added substances were dissolved. The solution was adjusted to pH 6.4 with 10% aqueous citric acid, and made into a volume of 100 ml with purified water to prepare a lotion. In this preparation, precipitates and the like were not observed. The prepared lotion in a volume of 6 ml was filled in a glass bottle, and exposed to light of a D65 fluorescent lamp at a total illumination of 0, 60,000, 180,000, or 300,000 lux·hr, and then the vitamin B6 derivative was quantified. The same sample was separately stored at 50° C., and after 0 day, 14 days, one month, and two months, the vitamin B6 derivative was quantified by the HPLC method described in Test Example 1.

[3] = Light stability in a shampoo
Method: Sodium coconut oil fatty acid methyltaurine (10.0 g), polyoxyethylene alkyl ether sodium sulfate (20.0 g), lauryl dimethylaminoacetate betaine (10.0 g), coconut oil fatty acid diethanolamide (4.0 g), propylene glycol (2.0 g), vitamin B6 derivative (0.1 g), and methyl paraoxybenzoate (0.01 g) were added to purified water (40 ml), and warmed to 70° C. for dissolution. The solution was cooled to a temperature below 35° C., and then adjusted to pH 6.8 with 10% aqueous citric acid, and made into a volume of 100 ml with purified water to prepare a shampoo. In this preparation, precipitates and the like were not observed. The prepared shampoo in a volume of 6 ml was filled in a glass bottle, and exposed to light of a D65 fluorescent lamp at a total illumination of 0, 60,000, 180,000, or 300,000 lux·hr, and then the vitamin B6 derivative was quantified. The same sample was separately stored at 50° C., and after 0 day, 14 days, one month, and two months, the vitamin B6 derivative was quantified by the HPLC method in the same manner as in Test Example 11 mentioned above.

Cc1ncc(CO)c(CO)c1O.Cl [pyridoxine hydrochloride]
remained substance in drinking water after irradiation ([1]; D65 fluorescent lamp, 180,000 lux·hr for 3 days): 68%
remained substance in drinking water after irradiation ([1]; D65 fluorescent lamp, 300,000 lux·hr for 5 days): 56%
remained substance in lotion after irradiation ([2]; lotion pH 6.4, D65 fluorescent lamp, 180,000 lux·hr for 3 days): 42%
remained substance in lotion after irradiation ([2]; lotion pH 6.4, D65 fluorescent lamp, 300,000 lux·hr for 5 days): 30%
remained substance in shampoo after irradiation ([3]; shampoo pH 6.8, D65 fluorescent lamp, 180,000 lux·hr for 3 days): 60%
remained substance in shampoo after irradiation ([3]; shampoo pH 6.8, D65 fluorescent lamp, 300,000 lux·hr for 5 days): 58%
